In brackets after ≈: the same amount, converted by molar mass. Like-named read-outs stand apart in the source and are kept apart here.
Tests used:
Mtb AccD6 = Mtb AccD6 (Mycobacterium tuberculosis, UniProt P9WQH5); assay: biochemical; format: biochemical
[1] = 1-year feeding study, dogs; cited from earlier work
[2] = mammals, within three days; cited from earlier work
Mtb strain mc^2-7000 = assay: microbe, parasite or virus in culture; format: cell-based, Mycobacterium tuberculosis; conditions: Mycobacterium tuberculosis, 144 h
[3] = cited from earlier work
[4] = Additional pharmacokinetic studies in rats
[5] = Pharmacokinetic studies in mice, plasma concentration after gavage (LC/MS)
plasma protein = assay: Plasma protein binding assay
Method: Protein plasma binding assays were conducted in female mice for each of the arylphenoxypropionate derivatives quizalofop-p, quizalofop-p-ethyl, fenoxaprop-p, and fenoxaprop-p-ethyl.

[6] = CPRC; cited from earlier work
in vivo = conditions: rat
[7] = rat, in vivo
[8] = 300 μM malonyl-CoA, inhibitor 10 μM to 2000 μM, read-out: IC50
[9] = 6 days incubation at 37° C., resazurin, read on the 7th day, read-out: MIC

Mtb AccD6, sequence (P9WQH5 whole entry, looked up): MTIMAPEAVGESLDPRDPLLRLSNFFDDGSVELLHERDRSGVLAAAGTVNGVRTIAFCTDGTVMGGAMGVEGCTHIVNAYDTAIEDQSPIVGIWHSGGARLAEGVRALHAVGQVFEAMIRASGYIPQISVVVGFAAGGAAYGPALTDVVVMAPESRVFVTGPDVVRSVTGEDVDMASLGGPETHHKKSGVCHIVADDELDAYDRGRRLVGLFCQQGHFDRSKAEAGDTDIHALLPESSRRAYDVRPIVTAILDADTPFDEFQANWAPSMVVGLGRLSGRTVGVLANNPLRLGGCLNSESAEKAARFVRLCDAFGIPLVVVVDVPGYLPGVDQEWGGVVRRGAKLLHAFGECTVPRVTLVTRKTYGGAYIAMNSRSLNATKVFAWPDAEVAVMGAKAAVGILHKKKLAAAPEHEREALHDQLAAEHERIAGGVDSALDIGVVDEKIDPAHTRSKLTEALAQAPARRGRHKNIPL

CCOC(=O)[C@@H](C)Oc1ccc(Oc2cnc3cc(Cl)ccc3n2)cc1 [quizalofop-p-ethyl, ethyl (2R)-2-{4-[(6-chloroquinoxalin-2-yl)oxy]phenoxy}propanoate]
IC50 (Mtb AccD6; [8]): 2300 nM
doses causing zero observed effects [1]: up to 10 mg/kg/day
share of a single oral dose eliminated in urine [2]: more than 90%
MIC (Mtb strain mc^2-7000; [9]): 0.68 to 1.56 µM (≈ 0.254 to 0.582 µg/mL)
LD50, rabbits [3]: greater than 2,000 mg/kg
time to convert from ester to acid [4]: ~3 h
time of peak (maximum) blood concentration ([4]; oral): six to nine
oral absorption ([4]; oral route): absorbed to a considerable extent by the oral route
concentration of quizalofop-p-ethyl detected at all collection timepoints ([5]; gavage 50 mg/kg): much lower than the concentration of quizalofop-p detected
stability under assay conditions (plasma esterase activity) (plasma protein; plasma): not stable under assay conditions
carcinogen classification [6]: Group D carcinogen

C[C@@H](Oc1ccc(Oc2cnc3cc(Cl)ccc3n2)cc1)C(=O)O [quizalofop-p, (2R)-2-{4-[(6-chloroquinoxalin-2-yl)oxy]phenoxy}propanoic acid, reference compound]
IC50 (Mtb AccD6): 800 nM
peak plasma concentration of quizalofop-p ([5]; quizalofop-p-ethyl or quizalofop-p in carboxymethylcellulose or canola oil, gavage 50 mg/kg, 8 hours after gavage): 35
Percentage of Compound Bound (plasma protein; mouse plasma): 96.8%
Percentage of Compound Recovered (plasma protein; mouse plasma): 90%

CCOC(=O)[C@@H](C)Oc1ccc(Oc2nc3ccc(Cl)cc3o2)cc1 [fenoxaprop-p-ethyl, ethyl (2R)-2-{4-[(6-chloro-1,3-benzoxazol-2-yl)oxy]phenoxy}propanoate]
MIC (Mtb strain mc^2-7000): 1.56 µM (≈ 0.564 µg/mL)
concentrations at which not toxic, human fibroblast cytotoxicity (human fibroblast): ≥ 100 µM
half-life (in vivo; initial phase): 9 to 11 h
half-life (in vivo; terminal phase): 68 to 75 h
stability under assay conditions (plasma esterase activity) (plasma protein): not stable under assay conditions
oral absorption [7]: absorbed rapidly
minimum rate of absorption (urinary excretion including cage washes and residues in tissues/organs) ([7]; po): at least 40 % of the administered dose
time at which test substance was already found in the blood ([7]; po): 15 min
time of peak (maximum) blood concentration ([7]; po): 6 to 8 h

CC(Oc1ccc(Oc2nc3ccc(Cl)cc3o2)cc1)C(=O)O (centres unmarked) [fenoxaprop-p, 2-{4-[(6-chloro-1,3-benzoxazol-2-yl)oxy]phenoxy}propanoic acid, reference compound]
IC50 (Mtb AccD6; [8]): 1500 nM
MIC (Mtb strain mc^2-7000; [9]): 25 µM (≈ 8.34 µg/mL)
concentrations at which not toxic, human fibroblast cytotoxicity (human fibroblast): ≥ 100 µM
Percentage of Compound Bound (plasma protein; female, mouse): 98.58%
Percentage of Compound Recovered (plasma protein; female, mouse): 76%

CONC(=O)C(C)c1ccc(Oc2nc3ccc(Cl)cc3s2)cc1 (racemic) [NZ-313, 2-{4-[(6-chloro-1,3-benzothiazol-2-yl)oxy]phenyl}-N-methoxypropanamide]
IC50 (Mtb AccD6; [8]): 320 nM
MIC (Mtb strain mc^2-7000; [9]): 0.38 µM (≈ 0.138 µg/mL)
concentrations at which not toxic, human fibroblast cytotoxicity (human fibroblast): ≥ 100 µM
concentrations at which not toxic, s. cerevisiae cytotoxicity (S. cerevisiae): ≥ 100 µM
peak plasma concentration (FIG. 8) ([5]; single dose 200 mg/kg, PEG, gavage, 90 minutes after gavage): 1
peak plasma concentration (FIG. 7) ([5]; two doses 100 mg/kg 4 hours apart, canola oil, gavage, 30 minutes after gavage): approximately 0.69 μL/mg
